Laboratory results as given in patent US10809252B2, “Time-resolved fluorescent immunochromatographic assay rapid test kit for type I pyrethroid” (priority 2017, dated 2020).

Columns and labels:
[1] = test system: universal monoclonal antibody against type I pyrethroid (hybridoma cell line QW8#); assay: conventional indirect competitive ELISA; assay type: binding, mouse
Text: To screen the target positive hybridoma cell line that is a highly specific and sensitive cell line against pyrethroid containing a diphenyl ether structure (by screening with etofenprox standard), the traditional two-step screening method was modified in this experiment. A gradient screening method was used in the indirect competitive ELISA screening process. (1) In the first step, an indirect non-competitive ELISA was used to screen the positive wells that recognized the diphenyl ether structure, but not the carrier protein (BSA). […] The positive wells with relatively small B/B0 were selected, where B is the absorbance in the control well […] etofenprox standard, and B0 is the absorbance in the wells with etofenprox standard. The cells were cloned by limiting dilution, and detected about 10 days after the cloning by using the same two-step method as described above. […]
The affinity for QW8# was determined by indirect non-competitive ELISA. […] The OD450 values measured was used as the vertical coordinates, the values of the logarithm of the antibody concentrations (mol/L) were used as the horizontal coordinates, 4 S-shaped curves corresponding to the 4 concentrations were plotted. […]

[2] = test system: Hapten-1-BSA; assay: affinity constant (Ka) of the antibody by indirect non-competitive ELISA; assay type: binding; settings: antibody derived from mouse ascetic fluid; plate coated with Hapten-1-BSA at 2.0, 1.0, 0.5, 0.25 μg/mL
Method: The affinity for QW8# was determined by indirect non-competitive ELISA. The plate was coated at 37° C. for 2 hours with Hapten-1-BSA at concentrations of 2.0, 1.0, 0.5, and 0.25 μg/mL in an amount of 100 μL/well. After the plate was blocked with a blocking solution for 1 hour, the antibody diluted with PBS (at a dilution factor of 1:2) was added to the plate and the rest steps were the same as those in indirect non-competitive ELISA. The OD450 values measured was used as the vertical coordinates, the values of the logarithm of the antibody concentrations (mol/L) were used as the horizontal coordinates, 4 S-shaped curves corresponding to the 4 concentrations were plotted. The maximum OD value (ODmax) at the top of each S-curve, that is, the concentration of the antibody that corresponds to 50% of the ODmax, was obtained from each curve. The 4 concentrations were paired, and the affinity constant (Ka) of the antibody was calculated by using the formula Ka=(n−1)/2(n[Ab′]t−[Ab]t), where [Ab′]t, and [Ab]t are antibody concentrations corresponding to 50% of two ODmax values in each group, and n is the multiple of the antigen concentration coated in each group.

| Molecule | IC50 value of the universal monoclonal antibody [1] | affinity (affinity constant Ka) of the antibody [2] |
| --- | --- | --- |
| CCOc1ccc(C(C)(C)COCc2cccc(Oc3ccccc3)c2)cc1 [etofenprox] | 0.02086 µg/mL |  |
| CC1(C)C(C=C(Cl)Cl)C1C(=O)OCc1cccc(Oc2ccccc2)c1 (stereo not drawn) [permethrin] | 0.0242 µg/mL |  |
| QW8#: universal monoclonal antibody against type I pyrethroid secreted by hybridoma cell line QW8# (CCTCC C2016164), subtype IgG2a (antibody, V domains shown) VH: QVTLKESGPGILQPSQTLSLTCSFSGFSLSTYGIGIGWIRQSSGRGLEWLAHIWWNDNRYYNIALKSRLTISKDASNNQFFLKLASVDTADIATYYCVRGYGRPFYAMDYWGQGTTVTVSS VL: QAVVTQESALTTSPGETVTLTCRSSTGAVTTSNYVNWVQEKPDHLFTGLIGGTNNRGPGVPARFSGSLIGDKAALTITGTQTEDEAIYFCALWYSNHWVFGGGTKLTVL |  | 2.16e+08 L/mol |
